Measured values: patent US9096601B2 (CSPC Zhongqi Pharmaceutical Technology (Shijiazhuang) Co., …, priority 2010, dated 2015)
Where two headings read alike, the source gives them in different places.

Experiments:
[1] = molecular target: EGFR L858R mutant type (Homo sapiens (Human), UniProt P00533, L858R); experiment: Kinase inhibitory activity, isotopic labeling (γ-33P-ATP); type: biochemical; conditions: ATP 200 μM (Km)
Protocol: (§1) The object of this assay was to test the inventive compounds for the kinase inhibitory activity in vitro. In this assay, an isotopic labeling method was used to label the γ phosphate group on ATP. […] Staurosporine was used as a reference molecule (or referred to as a positive control). […] The IC50 value can be obtained by the calculation of the inhibitory rates at a series of different concentrations of the tested compounds.
(§2) To a reaction tube were successively added the buffer solution (8 mM MOPS, pH 7.0, 0.2 mM EDTA, 10 mM MnCl2), the kinase to be tested (5-10 mU) (EGFR/ALK/BTK/c-KIT/c-SRC/MET/PDGFRα/VEGFR2), the substrate for the kinase to be tested (a reference material), 10 mM of the solution of magnesium acetate and γ-^33 P-ATP, and different concentrations of the tested compounds. […] The reaction was terminated with […] of the 3% phosphate buffer solution. 10 μL of the reaction liquid was titrated on the Filtermat A membrane. The membrane was washed with 75 mM of the phosphate solution thrice (5 minutes each time), and then with methanol once, and finally dried. The membrane was subjected to a scintillation counting. The value of the scintillation counting reflected the phosphorylation level of the substrate and therefore could characterize the inhibition of the kinase activity.

[2] = molecular target: EGFR L858R/T790M double mutant type (Homo sapiens (Human), UniProt P00533, L858R/T790M); experiment: as above; type: biochemical; conditions: ATP 45 μM (Km)
Protocol: as §1, §2

[3] = molecular target: EGFR wild type (Homo sapiens (Human), UniProt P00533); experiment: as above; type: biochemical; conditions: ATP 10 μM (Km)
Protocol: as §1, §2

[4] = molecular target: ALK (Homo sapiens (Human), UniProt Q9UM73); experiment: as above; type: biochemical; conditions: compound at 10 μM
Protocol: (§3) The object of this assay was to test the inventive compounds for the kinase inhibitory activity in vitro. In this assay, an isotopic labeling method was used to label the γ phosphate group on ATP. EGFR (including wild type, L858R mutant type and L858R/T790M double mutant type), VEGFR2, ALK, BTK, c-KIT, c-SRC, MET, PDGFRα and FLT3 kinases were tested in vitro for the activity inhibition. Staurosporine was used as a reference molecule (or referred to as a positive control). […] The IC50 value can be obtained by the calculation of the inhibitory rates at a series of different concentrations of the tested compounds.
as §2

[5] = molecular target: BTK (Homo sapiens (Human), UniProt Q06187); experiment: as above; type: biochemical; conditions: compound at 10 μM
Protocol: as §3, §2

[6] = molecular target: FLT3 (Homo sapiens (Human), UniProt P36888); experiment: as above; type: biochemical; conditions: compound at 10 μM
Protocol: as §3, §2

[7] = molecular target: MET (Homo sapiens (Human), UniProt P08581); experiment: as above; type: biochemical; conditions: compound at 10 μM
Protocol: as §3, §2

[8] = molecular target: PDGFRα (Homo sapiens (Human), UniProt P16234); experiment: as above; type: biochemical; conditions: compound at 10 μM
Protocol: as §3, §2

[9] = molecular target: VEGFR2 (Homo sapiens (Human), UniProt P35968); experiment: as above; type: biochemical
Protocol: as §3, §2

[10] = molecular target: c-KIT (Homo sapiens (Human), UniProt P10721); experiment: as above; type: biochemical; conditions: compound at 10 μM
Protocol: as §3, §2

[11] = molecular target: c-SRC (Homo sapiens (Human), UniProt P12931); experiment: as above; type: biochemical; conditions: compound at 10 μM
Protocol: as §3, §2

[12] = test system: acute myelogenous leukemia cell strain MV4-11; experiment: In-vitro tumor cell proliferation inhibition, MTT; type: cell-based, human
[13] = test system: colon cancer cell strain HCT116; experiment: In-vitro tumor cell proliferation inhibition, MTT; type: cell-based, human
[14] = test system: colon cancer cell strain SW480; experiment: In-vitro tumor cell proliferation inhibition, MTT; type: cell-based, human
[15] = test system: squamous cell carcinoma cell strain A431; experiment: In-vitro tumor cell proliferation inhibition, MTT; type: cell-based, human
Outline: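 MTT colorimetric proliferation test: plated cells exposed 72 h to compound dilution series, DMSO 1% solvent control included. A570 gave inhibition relative to drug-free control; IC50 or inhibitory rate from at least three experiments. HCC827 and BT474 grown in RPMI-1640, A431 and SW620 in DMEM, both with 10% FBS.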

VEGFR2, sequence (P35968 20-1356): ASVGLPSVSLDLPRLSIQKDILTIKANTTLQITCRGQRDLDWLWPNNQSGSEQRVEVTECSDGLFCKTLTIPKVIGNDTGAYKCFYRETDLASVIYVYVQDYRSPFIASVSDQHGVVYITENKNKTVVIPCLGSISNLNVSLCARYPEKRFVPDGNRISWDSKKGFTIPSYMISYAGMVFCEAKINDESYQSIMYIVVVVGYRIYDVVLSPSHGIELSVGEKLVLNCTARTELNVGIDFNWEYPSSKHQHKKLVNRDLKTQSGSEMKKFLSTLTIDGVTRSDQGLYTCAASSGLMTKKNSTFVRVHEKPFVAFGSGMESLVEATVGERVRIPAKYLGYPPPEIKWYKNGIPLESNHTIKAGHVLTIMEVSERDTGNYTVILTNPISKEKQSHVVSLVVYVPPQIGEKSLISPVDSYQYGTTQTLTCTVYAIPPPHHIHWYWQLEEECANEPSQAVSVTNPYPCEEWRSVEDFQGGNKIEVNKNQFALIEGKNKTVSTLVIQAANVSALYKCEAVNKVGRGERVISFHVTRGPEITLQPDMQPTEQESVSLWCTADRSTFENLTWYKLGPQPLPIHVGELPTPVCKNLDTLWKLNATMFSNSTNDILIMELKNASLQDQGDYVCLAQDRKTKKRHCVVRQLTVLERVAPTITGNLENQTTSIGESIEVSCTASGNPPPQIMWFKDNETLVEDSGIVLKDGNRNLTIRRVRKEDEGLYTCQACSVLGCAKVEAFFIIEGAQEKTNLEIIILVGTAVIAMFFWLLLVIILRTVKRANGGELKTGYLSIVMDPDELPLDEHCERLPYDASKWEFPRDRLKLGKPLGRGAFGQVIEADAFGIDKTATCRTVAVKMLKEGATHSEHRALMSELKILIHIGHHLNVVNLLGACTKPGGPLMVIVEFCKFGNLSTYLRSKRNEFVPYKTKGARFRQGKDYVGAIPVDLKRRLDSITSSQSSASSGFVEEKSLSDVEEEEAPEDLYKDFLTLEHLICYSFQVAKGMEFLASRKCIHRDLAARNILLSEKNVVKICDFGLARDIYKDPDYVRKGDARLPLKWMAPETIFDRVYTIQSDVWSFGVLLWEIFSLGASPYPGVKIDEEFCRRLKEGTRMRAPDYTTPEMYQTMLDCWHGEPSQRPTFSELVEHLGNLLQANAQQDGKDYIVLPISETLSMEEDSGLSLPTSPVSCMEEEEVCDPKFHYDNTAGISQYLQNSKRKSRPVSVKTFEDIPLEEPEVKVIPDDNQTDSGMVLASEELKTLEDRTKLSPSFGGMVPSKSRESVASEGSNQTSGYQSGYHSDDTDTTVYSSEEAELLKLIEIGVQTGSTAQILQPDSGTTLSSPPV
BTK, sequence (Q06187 whole entry): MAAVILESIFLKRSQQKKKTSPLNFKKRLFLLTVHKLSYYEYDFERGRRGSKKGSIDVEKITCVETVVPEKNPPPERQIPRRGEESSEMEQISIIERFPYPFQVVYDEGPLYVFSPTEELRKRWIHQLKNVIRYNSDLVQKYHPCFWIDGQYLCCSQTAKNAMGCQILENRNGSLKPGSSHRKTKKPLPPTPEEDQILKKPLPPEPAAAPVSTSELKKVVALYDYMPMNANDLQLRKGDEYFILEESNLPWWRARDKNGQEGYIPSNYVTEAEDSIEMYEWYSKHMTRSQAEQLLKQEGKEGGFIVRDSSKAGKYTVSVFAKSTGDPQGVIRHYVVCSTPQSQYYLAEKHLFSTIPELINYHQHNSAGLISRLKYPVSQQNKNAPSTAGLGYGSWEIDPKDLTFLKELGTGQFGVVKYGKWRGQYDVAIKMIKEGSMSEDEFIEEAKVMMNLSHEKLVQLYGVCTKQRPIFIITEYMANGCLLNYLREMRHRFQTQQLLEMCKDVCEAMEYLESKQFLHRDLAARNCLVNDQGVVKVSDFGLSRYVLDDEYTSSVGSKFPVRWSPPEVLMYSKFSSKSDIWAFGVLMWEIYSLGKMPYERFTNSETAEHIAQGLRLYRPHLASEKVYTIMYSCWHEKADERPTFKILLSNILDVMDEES
c-KIT, sequence (P10721 26-976): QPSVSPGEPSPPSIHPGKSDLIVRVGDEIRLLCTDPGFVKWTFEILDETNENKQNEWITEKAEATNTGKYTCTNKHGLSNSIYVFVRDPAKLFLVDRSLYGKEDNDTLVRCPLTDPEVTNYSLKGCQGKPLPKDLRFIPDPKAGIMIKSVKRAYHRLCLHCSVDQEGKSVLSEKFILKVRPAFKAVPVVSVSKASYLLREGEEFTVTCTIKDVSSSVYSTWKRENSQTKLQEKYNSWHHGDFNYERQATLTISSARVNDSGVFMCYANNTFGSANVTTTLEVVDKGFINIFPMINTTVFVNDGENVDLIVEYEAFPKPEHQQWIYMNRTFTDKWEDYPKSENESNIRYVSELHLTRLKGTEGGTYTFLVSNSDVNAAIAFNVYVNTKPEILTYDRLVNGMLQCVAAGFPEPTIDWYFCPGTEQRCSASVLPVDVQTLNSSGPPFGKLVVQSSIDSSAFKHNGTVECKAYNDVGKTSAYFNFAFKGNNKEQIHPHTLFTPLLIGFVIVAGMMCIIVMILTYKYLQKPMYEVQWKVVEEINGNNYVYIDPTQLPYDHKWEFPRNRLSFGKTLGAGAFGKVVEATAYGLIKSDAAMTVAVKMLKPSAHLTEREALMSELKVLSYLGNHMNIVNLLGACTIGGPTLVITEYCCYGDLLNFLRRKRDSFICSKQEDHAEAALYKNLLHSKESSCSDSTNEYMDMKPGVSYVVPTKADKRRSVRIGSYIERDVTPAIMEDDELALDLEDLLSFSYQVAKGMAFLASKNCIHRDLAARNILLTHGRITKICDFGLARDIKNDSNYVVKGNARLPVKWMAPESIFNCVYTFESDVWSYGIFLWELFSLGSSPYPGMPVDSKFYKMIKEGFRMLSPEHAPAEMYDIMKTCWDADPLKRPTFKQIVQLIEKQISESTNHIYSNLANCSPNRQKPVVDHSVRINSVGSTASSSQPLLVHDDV
PDGFRα, sequence (P16234 24-1089): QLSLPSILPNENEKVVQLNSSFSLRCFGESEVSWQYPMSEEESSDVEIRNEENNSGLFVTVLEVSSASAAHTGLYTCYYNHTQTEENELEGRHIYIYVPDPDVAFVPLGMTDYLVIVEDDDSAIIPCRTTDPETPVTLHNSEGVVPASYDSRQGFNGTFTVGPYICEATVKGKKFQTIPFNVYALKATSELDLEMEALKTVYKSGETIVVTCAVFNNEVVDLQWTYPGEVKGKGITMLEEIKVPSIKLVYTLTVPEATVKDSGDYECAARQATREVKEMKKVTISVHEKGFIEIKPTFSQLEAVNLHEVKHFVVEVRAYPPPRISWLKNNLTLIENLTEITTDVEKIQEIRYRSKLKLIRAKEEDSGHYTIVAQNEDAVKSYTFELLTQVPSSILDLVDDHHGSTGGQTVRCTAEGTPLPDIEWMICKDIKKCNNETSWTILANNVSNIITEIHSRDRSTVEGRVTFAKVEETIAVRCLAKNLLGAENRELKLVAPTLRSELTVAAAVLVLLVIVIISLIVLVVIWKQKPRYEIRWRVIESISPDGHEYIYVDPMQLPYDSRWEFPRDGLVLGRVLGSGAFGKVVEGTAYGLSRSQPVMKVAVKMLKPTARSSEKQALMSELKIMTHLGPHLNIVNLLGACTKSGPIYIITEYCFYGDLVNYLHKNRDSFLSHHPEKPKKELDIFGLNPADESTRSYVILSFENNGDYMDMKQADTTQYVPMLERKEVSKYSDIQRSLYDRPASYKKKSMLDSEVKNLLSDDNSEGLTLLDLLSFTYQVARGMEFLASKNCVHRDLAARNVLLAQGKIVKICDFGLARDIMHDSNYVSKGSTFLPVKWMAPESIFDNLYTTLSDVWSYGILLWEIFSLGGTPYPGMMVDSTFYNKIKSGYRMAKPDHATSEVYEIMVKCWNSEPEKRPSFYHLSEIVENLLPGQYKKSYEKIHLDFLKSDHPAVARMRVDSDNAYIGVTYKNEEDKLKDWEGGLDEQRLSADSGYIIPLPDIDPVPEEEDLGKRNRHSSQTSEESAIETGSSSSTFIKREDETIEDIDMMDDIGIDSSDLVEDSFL
c-SRC, sequence (P12931 whole entry, looked up): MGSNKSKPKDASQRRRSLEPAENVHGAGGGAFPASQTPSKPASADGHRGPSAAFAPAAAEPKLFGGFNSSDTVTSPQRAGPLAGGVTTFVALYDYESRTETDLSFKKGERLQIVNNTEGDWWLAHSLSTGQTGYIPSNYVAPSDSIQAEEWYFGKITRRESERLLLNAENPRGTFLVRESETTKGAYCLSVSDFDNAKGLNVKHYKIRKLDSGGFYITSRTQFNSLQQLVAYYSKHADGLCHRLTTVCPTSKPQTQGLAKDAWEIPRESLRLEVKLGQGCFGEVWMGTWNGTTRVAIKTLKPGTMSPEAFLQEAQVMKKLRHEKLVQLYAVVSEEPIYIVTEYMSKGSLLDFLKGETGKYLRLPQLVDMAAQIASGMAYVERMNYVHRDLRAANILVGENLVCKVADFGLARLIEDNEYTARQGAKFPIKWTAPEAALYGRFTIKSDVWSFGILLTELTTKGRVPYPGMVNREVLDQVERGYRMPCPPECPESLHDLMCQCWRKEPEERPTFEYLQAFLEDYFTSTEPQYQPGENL

SMILES	IC50 [1]	IC50 [2]	IC50 [3]	The kinase activity inhibitory rate (%) by the tested compounds at 10 μM ALK [4]	The kinase activity inhibitory rate (%) by the tested compounds at 10 μM BTK [5]	The kinase activity inhibitory rate (%) by the tested compounds at 10 μM FLT3 [6]	The kinase activity inhibitory rate (%) by the tested compounds at 10 μM MET [7]	The kinase activity inhibitory rate (%) by the tested compounds at 10 μM PDGFRα [8]	IC50 ([9]; ATP 90 μM (Km))	The kinase activity inhibitory rate (%) by the tested compounds at 10 μM c-KIT [10]	The kinase activity inhibitory rate (%) by the tested compounds at 10 μM c-SRC [11]	IC50 ([12]; 72 hours)	IC50 ([13]; 72 hours)	IC50 ([14]; 72 hours)	IC50 ([15]; 72 hours)	further results
CC(C)n1c(Nc2ccccc2)nc2cnc(Nc3ccc(C(=O)NN4CCN(C)CC4)cc3)nc21 [Compound 8-1]	0.008 µM	0.09 µM	0.003 µM	23%	46%	85%	83%	43%	> 1000 nM	26%	11%	89 nM	> 10000 nM	5720 nM	2060 nM	–
CC(C)n1c(Nc2ccc(F)c(Cl)c2)nc2cnc(Nc3ccc(C(=O)NN4CCN(C)CC4)cc3)nc21 [Compound 8-2]	0.001 µM	< 0.001 µM	0.002 µM	63%	98%	78%	100%	84%	> 1000 nM	90%	99%	1770 nM	7810 nM	> 10000 nM	9290 nM	–
COc1cc(C(=O)NN2CCN(C)CC2)ccc1Nc1ncc2nc(Nc3ccccc3)n(C(C)C)c2n1 [Compound 8-7, 3-methoxy-4-(9-isopropyl-8-phenylamino-9H-purin-2-ylamino)-N-(4-methylpiperazin-1-yl)benzamide]	–	–	–	–	–	–	–	–	–	–	–	–	–	–	–	inhibition at 10 µM ([4]; read-out: The kinase activity inhibitory rate (%) by the tested compounds at 10 μM ALK): 61%; inhibition at 10 µM ([5]; read-out: The kinase activity inhibitory rate (%) by the tested compounds at 10 μM BTK): 12%; inhibition at 10 µM ([6]; read-out: The kinase activity inhibitory rate (%) by the tested compounds at 10 μM FLT3): 0%; inhibition at 10 µM ([7]; read-out: The kinase activity inhibitory rate (%) by the tested compounds at 10 μM MET): 0%; inhibition at 10 µM ([8]; read-out: The kinase activity inhibitory rate (%) by the tested compounds at 10 μM PDGFRα): 9%; IC50 [9]: > 1000 nM; inhibition at 10 µM ([10]; read-out: The kinase activity inhibitory rate (%) by the tested compounds at 10 μM c-KIT): 8%; inhibition at 10 µM ([11]; read-out: The kinase activity inhibitory rate (%) by the tested compounds at 10 μM c-SRC): 28%; IC50 ([12]; Homo sapiens, MV4-11, 72 hours): > 10000 nM; IC50 ([13]; Homo sapiens, HCT-116, 72 hours): > 10000 nM; IC50 ([14]; Homo sapiens, SW480, 72 hours): > 10000 nM; IC50 ([15]; Homo sapiens, A-431, 72 hours): > 10000 nM
CC(C)n1c(Nc2ccccc2)nc2cnc(Nc3ccc(C(=O)NC4CCN(C)CC4)cc3)nc21 [Compounds 8-9]	0.0004 µM	0.006 µM	< 0.001 µM	36%	88%	76%	67%	88%	> 1000 nM	96%	98%	235 nM	518 nM	> 10000 nM	1530 nM	–
CC(C)n1c(Nc2ccccc2)nc2cnc(Nc3ccc(N4CCN(C)CC4)cc3)nc21 [Compounds 8-10]	0.005 µM	0.046 µM	0.005 µM	45%	32%	87%	64%	87%	> 1000 nM	3%	23%	102 nM	1090 nM	> 10000 nM	1580 nM	–
CC(C)n1c(Nc2cccc(Br)c2)nc2cnc(Nc3ccc(N4CCN(C)CC4)cc3)nc21 [Compounds 8-11]	0.004 µM	0.005 µM	0.007 µM	33%	77%	67%	93%	58%	140 nM	67%	98%	3760 nM	1680 nM	> 10000 nM	7670 nM	–
C#Cc1cccc(Nc2nc3cnc(Nc4ccc(N5CCN(C)CC5)cc4)nc3n2C(C)C)c1 [Compounds 8-12]	0.003 µM	0.003 µM	0.004 µM	80%	78%	56%	93%	55%	50 nM	82%	98%	1710 nM	4010 nM	> 10000 nM	2570 nM	–
CC(C)n1c(Nc2ccc(F)c(Cl)c2)nc2cnc(Nc3ccc(N4CCN(C)CC4)cc3)nc21 [Compounds 8-13]	0.003 µM	0.009 µM	0.004 µM	78%	45%	89%	100%	90%	> 1000 nM	87%	31%	512 nM	2540 nM	> 10000 nM	1290 nM	–
CC(C)n1c(Nc2ccc(Br)cc2)nc2cnc(Nc3ccc(N4CCN(C)CC4)cc3)nc21 [Compounds 8-15]	0.001 µM	0.015 µM	0.003 µM	40%	95%	90%	45%	94%	4 nM	94%	97%	197 nM	2200 nM	> 10000 nM	9400 nM	–
